Each compound was assayed against T1, Human complement C1s enzyme (Homo sapiens, UniProt P09871) (assay: Human C1s enzyme assay). Settings: human complement C1s enzyme 1.16 nM, substrate Z-L-Lys-SBzl 100 μM, 5 min preincubation; read-out: IC50 (Stars), C1s Inhibiting Activity.
T1 sequence (P09871 438-688 limits assumed): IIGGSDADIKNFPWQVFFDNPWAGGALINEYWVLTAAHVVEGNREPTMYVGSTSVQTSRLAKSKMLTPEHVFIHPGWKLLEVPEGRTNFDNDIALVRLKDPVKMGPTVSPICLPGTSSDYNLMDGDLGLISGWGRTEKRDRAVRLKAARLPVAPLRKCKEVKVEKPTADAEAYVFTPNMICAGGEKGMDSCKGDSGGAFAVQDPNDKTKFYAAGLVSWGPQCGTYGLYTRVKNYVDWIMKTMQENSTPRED
T1 sequence (P09871 16-437 partner limits assumed): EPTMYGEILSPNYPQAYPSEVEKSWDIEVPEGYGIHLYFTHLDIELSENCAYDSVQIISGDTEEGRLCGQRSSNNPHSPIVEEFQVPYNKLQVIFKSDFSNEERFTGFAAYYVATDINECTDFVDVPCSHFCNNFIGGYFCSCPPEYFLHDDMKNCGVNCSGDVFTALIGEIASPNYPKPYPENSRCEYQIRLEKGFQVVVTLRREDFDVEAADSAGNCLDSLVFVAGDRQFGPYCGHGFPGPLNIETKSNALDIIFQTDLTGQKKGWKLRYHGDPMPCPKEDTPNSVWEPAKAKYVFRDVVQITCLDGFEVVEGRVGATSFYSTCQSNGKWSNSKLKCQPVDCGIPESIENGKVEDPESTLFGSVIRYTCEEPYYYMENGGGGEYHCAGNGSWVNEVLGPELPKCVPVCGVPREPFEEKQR
Format: biochemical
Procedure: Other standard complement assays are also available.
Human complement C1s enzyme (purified from human serum, Complement Technology, Inc.) at 1.16 nM final concentration was incubated with test compound at various concentrations for 5 min at room temperature in 50 mM Tris, 1 M NaCl, pH 7.5. A synthetic substrate Z-L-Lys-SBzl and DTNB (Ellman's reagent) were added to final concentrations of 100 μM each. Absorbance at 405 nm (A405) was recorded at 30 second intervals for 30 min using a microplate spectrophotometer. IC50 values were calculated by nonlinear regression of complement C1 s reaction rates as a function of test compound concentration.
ND indicates a compound for which the IC50 value is not determined.

Structure (SMILES) | IC50 [nM]
Cc1cc(F)ccc1Oc1ccc(C(=O)NCC(=O)N2C[C@H](OC(F)F)C[C@H]2C(=O)NCc2cc3cnccc3[nH]2)cc1 [Compound 308, (2S,4R)-N-((1H-pyrrolo[3,2-c]pyridin-2-yl)methyl)-4-(difluoromethoxy)-1-((4-(4-fluoro-2-methylphenoxy)benzoyl)glycyl)pyrrolidine-2-carboxamide] | < 100
C[C@@H](NC(=O)[C@@H]1CC2(CN1C(=O)CNC(=O)c1ccc3c(c1)-c1ccccc1C3(F)F)OCCO2)c1cc2cnccc2[nH]1 [Compound 38, (S)-N-((R)-1-(1H-pyrrolo[3,2-c]pyridin-2-yl)ethyl)-7-((9,9-difluoro-9H-fluorene-3-carbonyl)glycyl)-1,4-dioxa-7-azaspiro[4.4]nonane-8-carboxamide] | < 100
O=C(NCC(=O)N1C[C@@](F)(CF)C[C@H]1C(=O)NCc1cc2cnccc2[nH]1)c1ccc2c(c1)Oc1ccccc1S2 [Compound 26, (2S,4R)-N-((1H-pyrrolo[3,2-c]pyridin-2-yl)methyl)-4-fluoro-4-(fluoromethyl)-1-((phenoxathiine-3-carbonyl)glycyl)pyrrolidine-2-carboxamide] | < 100
C[C@@]12C[C@@H](C(=O)NCc3cc4cnccc4[nH]3)N(C(=O)CNC(=O)c3cccc(Oc4ccc(F)cc4)c3)[C@@H]1C2 [Compound 155, (1R,3S,5R)-N-((1H-pyrrolo[3,2-c]pyridin-2-yl)methyl)-2-((3-(4-fluorophenoxy)benzoyl)glycyl)-5-methyl-2-azabicyclo[3.1.0]hexane-3-carboxamide] | 100 to 1000
O=C(NCC(=O)N1CC2(C[C@H]1C(=O)NCc1cc3cnccc3[nH]1)OCCO2)c1ccc2c(c1)sc1ccccc12 [Compound 179, (S)-N-((1H-pyrrolo[3,2-c]pyridin-2-yl)methyl)-7-((dibenzo[b,d]thiophene-3-carbonyl)glycyl)-1,4-dioxa-7-azaspiro[4.4]nonane-8-carboxamide] | < 100
C[C@@]12C[C@@H]1N(C(=O)CNC(=O)c1ccc3oc4ccccc4c3c1)[C@H](C(=O)NCc1cc3cnccc3[nH]1)C2 [Compound 203, (1S,3S,5S)-N-((1H-pyrrolo[3,2-c]pyridin-2-yl)methyl)-2-((dibenzo[b,d]furan-2-carbonyl)glycyl)-5-methyl-2-azabicyclo[3.1.0]hexane-3-carboxamide] | < 100
O=C(NCC(=O)N1CC2(C[C@H]1C(=O)N[C@H](CO)c1cc3cnccc3[nH]1)OCCO2)c1ccc(Oc2ccc(F)cc2)cc1 [Compound 94, (S)-7-((4-(4-fluorophenoxy)benzoyl)glycyl)-N-((S)-2-hydroxy-1-(1H-pyrrolo[3,2-c]pyridin-2-yl)ethyl)-1,4-dioxa-7-azaspiro[4.4]nonane-8-carboxamide] | > 1000
C[C@@H](NC(=O)[C@@H]1C[C@@H](OC(F)F)CN1C(=O)CN1Cc2cc(-c3ccc(F)cc3F)ccc2C1=O)c1cc2cnccc2[nH]1 [Compound 91, (2S,4R)-N-((R)-1-(1H-pyrrolo[3,2-c]pyridin-2-yl)ethyl)-4-(difluoromethoxy)-1-(2-(5-(2,4-difluorophenyl)-1-oxoisoindolin-2-yl)acetyl)pyrrolidine-2-carboxamide] | < 100
Cc1cccc(-c2nc(C)cc(C(=O)NCC(=O)N3CC4(C[C@H]3C(=O)NCc3cc5cnccc5[nH]3)OCCO4)c2C)c1 [Compound 306, (S)-N-((1H-pyrrolo[3,2-c]pyridin-2-yl)methyl)-7-((3,6-dimethyl-2-(m-tolyl)isonicotinoyl)glycyl)-1,4-dioxa-7-azaspiro[4.4]nonane-8-carboxamide] | < 100

Continued, values first:

IC50 [nM] | Structure (SMILES)
< 100 | CS(=O)(=O)[C@@H]1C[C@@H](C(=O)NCc2cc3cnccc3[nH]2)N(C(=O)CNC(=O)c2ccc3c(c2)-c2ccccc2C3(F)F)C1 [Compound 7, (2S,4R)-N-((1H-pyrrolo[3,2-c]pyridin-2-yl)methyl)-1-((9,9-difluoro-9H-fluorene-3-carbonyl)glycyl)-4-(methylsulfonyl)pyrrolidine-2-carboxamide]
< 100 | C[C@@H](NC(=O)[C@@H]1C[C@H](c2ncco2)CN1C(=O)CNC(=O)c1ccc2c(c1)Oc1ccccc1S2)c1cc2cnccc2[nH]1 [Compound 178, (2S,4S)-N-((R)-1-(1H-pyrrolo[3,2-c]pyridin-2-yl)ethyl)-4-(oxazol-2-yl)-1-((phenoxathiine-3-carbonyl)glycyl)pyrrolidine-2-carboxamide]
> 1000 | O=C(NCC(=O)N1C[C@H](OC(F)F)C[C@H]1C(=O)NCc1cc2cnccc2[nH]1)c1cncc(N2CCOCC2)n1 [Compound 380, N-(2-((2S,4R)-2-(((1H-pyrrolo[3,2-c]pyridin-2-yl)methyl)carbamoyl)-4-(difluoromethoxy)pyrrolidin-1-yl)-2-oxoethyl)-6-morpholinopyrazine-2-carboxamide]
< 100 | O=C(NCC(=O)N1CC2(C[C@H]1C(=O)NCc1cc3cnccc3s1)OCCO2)c1ccc2c(c1)Oc1ccccc1S2 [Compound 54, (S)-7-((phenoxathiine-3-carbonyl)glycyl)-N-(thieno[3,2-c]pyridin-2-ylmethyl)-1,4-dioxa-7-azaspiro[4.4]nonane-8-carboxamide]
> 1000 | Cc1cc2[nH]c(CNC(=O)[C@@H]3C[C@]4(C)C[C@@H]4N3C(=O)CNC(=O)c3ccc4c(c3)Oc3ccccc3S4)cc2cn1 [Compound 268, (1S,3S,5S)-5-methyl-N-((6-methyl-1H-pyrrolo[3,2-c]pyridin-2-yl)methyl)-2-((phenoxathiine-3-carbonyl)glycyl)-2-azabicyclo[3.1.0]hexane-3-carboxamide]
< 100 | O=C(NCC(=O)N1C[C@H](OC(F)F)C[C@H]1C(=O)NCc1cc2cnccc2[nH]1)c1ccc2c(c1)Oc1ccccc1S2 [Compound 36, (2S,4R)-N-((1H-pyrrolo[3,2-c]pyridin-2-yl)methyl)-4-(difluoromethoxy)-1-((phenoxathiine-3-carbonyl)glycyl)pyrrolidine-2-carboxamide]
> 1000 | Cc1nccc2[nH]c(CNC(=O)[C@@H]3C[C@]4(C)C[C@@H]4N3C(=O)CNC(=O)c3ccc4c(c3)Oc3ccccc3S4)cc12 [Compound 267, (1S,3S,5S)-5-methyl-N-((4-methyl-1H-pyrrolo[3,2-c]pyridin-2-yl)methyl)-2-((phenoxathiine-3-carbonyl)glycyl)-2-azabicyclo[3.1.0]hexane-3-carboxamide]
< 100 | C[C@@H](NC(=O)[C@@H]1CC2(CC2)CN1C(=O)CNC(=O)c1ccc2c(c1)Oc1ccccc1S2)c1cc2cnccc2[nH]1 [Compound 190, (S)-N-((R)-1-(1H-pyrrolo[3,2-c]pyridin-2-yl)ethyl)-5-((phenoxathiine-3-carbonyl)glycyl)-5-azaspiro[2.4]heptane-6-carboxamide]
100 to 1000 | COC[C@@]1(F)C[C@@H](C(=O)N[C@H](C)c2cc3cnccc3[nH]2)N(C(=O)CNC(=O)c2ccc(-c3ccccc3)cc2)C1 [Compound 83, (2S,4R)-N-((R)-1-(1H-pyrrolo[3,2-c]pyridin-2-yl)ethyl)-1-(([1,1′-biphenyl]-4-carbonyl)glycyl)-4-fluoro-4-(methoxymethyl)pyrrolidine-2-carboxamide]
< 100 | C[C@@]12C[C@@H]1N(C(=O)CNC(=O)c1cccc(Oc3ccc(F)cc3)c1)[C@H](C(=O)NCc1cc3cnccn3c1)C2 [Compound 269, (1S,3S,5S)-2-((3-(4-fluorophenoxy)benzoyl)glycyl)-5-methyl-N-(pyrrolo[1,2-a]pyrazin-7-ylmethyl)-2-azabicyclo[3.1.0]hexane-3-carboxamide]
< 100 | Cc1cc(F)ccc1Oc1cccc(C(=O)NCC(=O)N2C[C@H](OC(F)F)C[C@H]2C(=O)NCc2cc3cnccc3[nH]2)c1 [Compound 274, (2S,4R)-N-((1H-pyrrolo[3,2-c]pyridin-2-yl)methyl)-4-(difluoromethoxy)-1-((3-(4-fluoro-2-methylphenoxy)benzoyl)glycyl) pyrrolidine-2-carboxamide]
< 100 | C[C@@H](NC(=O)[C@@H]1C[C@]2(C)C[C@@H]2N1C(=O)CN1Cc2cc(-c3ccc(F)cc3F)ccc2C1=O)c1cc2cnccc2[nH]1 [Compound 113, (1S,3S,5S)-N-((R)-1-(1H-pyrrolo[3,2-c]pyridin-2-yl)ethyl)-2-(2-(5-(2,4-difluorophenyl)-1-oxoisoindolin-2-yl)acetyl)-5-methyl-2-azabicyclo[3.1.0]hexane-3-carboxamide]
100 to 1000 | O=C(NCC(=O)N1CC[C@@H](O)[C@H]1C(=O)NCc1cc2cnccc2[nH]1)c1ccc(Oc2ccccc2)cc1 [Compound 151, (2S,3R)-N-((1H-pyrrolo[3,2-c]pyridin-2-yl)methyl)-3-hydroxy-1-((4-phenoxybenzoyl)glycyl)pyrrolidine-2-carboxamide]
